IC50 and Ki data for 11 compounds are collected here from US20250313572A1, “MACROCYCLIC MCL-1 INHIBITORS AND METHODS OF USE” (AbbVie Inc., priority 2017, published 2025).

Like-named read-outs stand apart in the source and are kept apart here.

By IC50 is commonly meant the concentration at which inhibition is half-maximal. Usually Ki stands for the dissociation constant of the complex between target and ligand, obtained from inhibition or displacement.

For assay [1], the system named is AMO-1 human multiple myeloma tumor cell line. Briefly: AMO-1 cell viability assay (CellTiter-Glo, 24 hours). It counts as cell-based. As to conditions: Homo sapiens, AMO1, 24 h, read-out: AMO-1 Viability IC50 (μM, 10% FBS), 10% FBS, 24 hours of compound treatment. (In general: Cellular ATP, detected with luciferase, serves as a proxy for viable cell number.)
Protocol: Each concentration was tested in duplicate at least 3 independent times. A luminescent signal proportional to the number of viable cells following 24 hours of compound treatment was determined using the CellTiter-Glo® Luminescent Cell Viability Assay according to the manufacturer's recommendations (Promega Corp., Madison, WI). The plates were read in a Perkin Elmer Envision using a Luminescence protocol. To generate dose response curves the data is normalized to percent viability by setting the averages of the staurosporine (10 μM) and DMSO only control wells to 0% and 100% viability respectively.
In assay [2] the target is GST-MCL-1 (Homo sapiens, UniProt Q07820). Briefly: TR-FRET MCL-1 binding assay (competition with probe F-Bak). In a few lines:
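Test compounds, 11 three-fold dilutions from 25 μM final, incubated 2 hours at room temperature with GST-MCL-1, F-Bak probe and Tb-anti-GST antibody. TR-FRET read at 340/35 nm excitation with 520/525 and 495/510 nm emission. Run without human serum and with 10% HS.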
(In TR-FRET formats the signal depends on donor and acceptor labels being close together.)

The test system of assay [3] is NCI-H929 human multiple myeloma tumor cell line. Briefly: NCI-H929 cell viability assay (CellTiter-Glo, 24 hours). It counts as cell-based. As to conditions: Homo sapiens, NCI-H929, 24 h, read-out: H929 Viability IC50 (μM, 10% FBS), 10% FBS, 24 hours of compound treatment.
Setting [4] is: MCL-1 Binding Ki (nM, 10% HS), in the presence of 10% HS (human serum).
[5] abbreviates: without HS, read-out: MCL-1 Binding Ki.

GST-MCL-1, sequence (Q07820 whole entry): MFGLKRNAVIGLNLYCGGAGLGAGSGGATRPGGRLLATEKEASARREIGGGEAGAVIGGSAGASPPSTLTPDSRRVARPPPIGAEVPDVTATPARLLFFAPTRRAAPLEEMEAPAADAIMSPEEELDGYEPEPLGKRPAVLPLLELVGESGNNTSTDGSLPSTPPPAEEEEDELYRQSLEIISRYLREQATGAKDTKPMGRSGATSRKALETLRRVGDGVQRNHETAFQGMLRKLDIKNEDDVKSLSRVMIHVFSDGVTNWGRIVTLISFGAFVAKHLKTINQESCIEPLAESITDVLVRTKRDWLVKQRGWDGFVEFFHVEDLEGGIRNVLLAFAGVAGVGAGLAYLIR

Take `COCCOCCOCC1CN(c2nccc(COc3ccc4cc3C[C@@H](C(=O)O)Oc3ncnc5sc(-c6ccc(F)cc6)c(c35)-c3c(C)c(Cl)c(c(Cl)c3C)O[C@H](CN3CCN(C)CC3)CO4)n2)C1` [Example 140, (7S,16R)-19,23-dichloro-1-(4-fluorophenyl)-10-{[2-(3-{[2-(2-methoxyethoxy)ethoxy]methyl}azetidin-1-yl)pyrimidin-4-yl]methoxy}-20,22-dimethyl-16-[(4-methylpiperazin-1-yl)methyl]-7,8,15,16-tetrahydro-18,21-etheno-9,13-(metheno)-6,14,17-trioxa-2-thia-3,5-diazacyclononadeca[1,2,3-cd]indene-7-carboxylic Acid]: the IC50 in assay [1] is 242 nM; in assay [3], 0.244 µM. Also, the Ki worked out at 166 nM in assay [2] (setting [4]) and 34.9 nM in assay [2] (setting [5]).
The corresponding values for `COCC(COC)Oc1nccc(COc2ccc3cc2C[C@H](C(=O)O)Oc2ncnc4sc(-c5ccc(F)cc5)c(c24)-c2c(C)c(Cl)c(c(Cl)c2C)O[C@H](CN2CCN(C)CC2)CO3)n1` [Example 141, (7R,16R)-19,23-dichloro-10-({2-[(1,3-dimethoxypropan-2-yl)oxy]pyrimidin-4-yl}methoxy)-1-(4-fluorophenyl)-20,22-dimethyl-16-[(4-methylpiperazin-1-yl)methyl]-7,8,15,16-tetrahydro-18,21-etheno-9,13-(metheno)-6,14,17-trioxa-2-thia-3,5-diazacyclononadeca[1,2,3-cd]indene-7-carboxylic Acid] are 0.441 nM, 0.000503 µM, 0.363 nM and 0.008 nM.
The corresponding values for `Cc1c(Cl)c2c(Cl)c(C)c1-c1c(-c3ccc(F)cc3)sc3ncnc(c13)O[C@@H](C(=O)O)Cc1cc(ccc1OCc1ccnc(-c3ccc(CCN4CCOCC4)cc3)n1)OC[C@@H](CN1CCN(C)CC1)O2` [Example 142, (7R,16R)-19,23-dichloro-1-(4-fluorophenyl)-20,22-dimethyl-16-[(4-methylpiperazin-1-yl)methyl]-10-[(2-{4-[2-(morpholin-4-yl)ethyl]phenyl}pyrimidin-4-yl)methoxy]-7,8,15,16-tetrahydro-18,21-etheno-13,9-(metheno)-6,14,17-trioxa-2-thia-3,5-diazacyclononadeca[1,2,3-cd]indene-7-carboxylic Acid] are 0.0488 nM, 0.000156 µM, 0.776 nM and 0.185 nM.
Turning to `Cc1c(Cl)c2c(Cl)c(C)c1-c1c(-c3ccc(F)cc3)sc3ncnc(c13)O[C@@H](C(=O)O)Cc1cc(ccc1OCc1ccnc(-c3cccc(CCN4CCOCC4)c3)n1)OC[C@@H](CN1CCN(C)CC1)O2` [Example 143, (7R,16R)-19,23-dichloro-1-(4-fluorophenyl)-20,22-dimethyl-16-[(4-methylpiperazin-1-yl)methyl]-10-[(2-{3-[2-(morpholin-4-yl)ethyl]phenyl}pyrimidin-4-yl)methoxy]-7,8,15,16-tetrahydro-18,21-etheno-13,9-(metheno)-6,14,17-trioxa-2-thia-3,5-diazacyclononadeca[1,2,3-cd]indene-7-carboxylic Acid], the IC50 in assay [1] is 0.216 nM; in assay [3] it was 0.000203 µM. Also, the Ki in assay [2] (setting [4]) came out at 0.175 nM; in assay [2] (setting [5]), 0.023 nM.
Turning to `Cc1c(Cl)c2c(Cl)c(C)c1-c1c(-c3ccc(F)cc3)sc3ncnc(c13)O[C@@H](C(=O)O)Cc1cc(ccc1OCc1ccnc(N3CCC(C)(N4CCOCC4)CC3)n1)OC[C@@H](CN1CCN(C)CC1)O2` [Example 144, (7R,16R)-19,23-dichloro-1-(4-fluorophenyl)-20,22-dimethyl-10-({2-[4-methyl-4-(morpholin-4-yl)piperidin-1-yl]pyrimidin-4-yl}methoxy)-16-[(4-methylpiperazin-1-yl)methyl]-7,8,15,16-tetrahydro-18,21-etheno-13,9-(metheno)-6,14,17-trioxa-2-thia-3,5-diazacyclononadeca[1,2,3-cd]indene-7-carboxylic Acid], the IC50 in assay [1] was 1.78 nM; in assay [3] it was 0.0077 µM. Moreover, the Ki was over 444 nM in assay [2] (setting [4]) and 10.9 nM in assay [2] (setting [5]).
Consider `Cc1c(Cl)c2c(Cl)c(C)c1-c1c(-c3ccc(F)cc3)sc3ncnc(c13)O[C@@H](C(=O)O)Cc1cc(ccc1OCc1ccnc(-c3ccc(S(=O)(=O)N4CCOCC4)cc3)n1)OC[C@@H](CN1CCN(C)CC1)O2` [Example 145, (7R,16R)-19,23-dichloro-1-(4-fluorophenyl)-20,22-dimethyl-16-[(4-methylpiperazin-1-yl)methyl]-10-({2-[4-(morpholine-4-sulfonyl)phenyl]pyrimidin-4-yl}methoxy)-7,8,15,16-tetrahydro-18,21-etheno-13,9-(metheno)-6,14,17-trioxa-2-thia-3,5-diazacyclononadeca[1,2,3-cd]indene-7-carboxylic Acid], for which the figures for the IC50 in assay [1] and in assay [3] were 0.407 nM and 0.000973 µM, respectively. Further, the Ki turned out to be 0.399 nM in assay [2] (setting [4]) and 0.081 nM in assay [2] (setting [5]).
Taken in the same sequence, the figures for `CO[C@@H]1CO[C@H]2[C@@H]1OC[C@H]2Oc1nccc(COc2ccc3cc2C[C@H](C(=O)O)Oc2ncnc4sc(-c5ccc(F)cc5)c(c24)-c2c(C)c(Cl)c(c(Cl)c2C)O[C@H](CN2CCN(C)CC2)CO3)n1` [Example 146, (7R,16R)-19,23-dichloro-1-(4-fluorophenyl)-10-[(2-{[(3R,3aR,6R,6aR)-6-methoxyhexahydrofuro[3,2-b]furan-3-yl]oxy}pyrimidin-4-yl)methoxy]-20,22-dimethyl-16-[(4-methylpiperazin-1-yl)methyl]-7,8,15,16-tetrahydro-18,21-etheno-13,9-(metheno)-6,14,17-trioxa-2-thia-3,5-diazacyclononadeca[1,2,3-cd]indene-7-carboxylic Acid] were 2.23 nM, 0.00408 µM, 0.041 nM and 0.001 nM.
Taken in the same sequence, the figures for `Cc1c(Cl)c2c(Cl)c(C)c1-c1c(-c3ccc(F)cc3)sc3ncnc(c13)O[C@@H](C(=O)O)Cc1cc(ccc1OCc1ccnc(-c3cccc(CN4CCOCC4)c3)n1)OC[C@@H](CN1CCN(C)CC1)O2` [Example 147, (7R,16R)-19,23-dichloro-1-(4-fluorophenyl)-20,22-dimethyl-16-[(4-methylpiperazin-1-yl)methyl]-10-[(2-{3-[(morpholin-4-yl)methyl]phenyl}pyrimidin-4-yl)methoxy]-7,8,15,16-tetrahydro-18,21-etheno-13,9-(metheno)-6,14,17-trioxa-2-thia-3,5-diazacyclononadeca[1,2,3-cd]indene-7-carboxylic Acid] were 0.204 nM, 0.000162 µM, 0.098 nM and 0.002 nM.
The corresponding values for `Cc1c(Cl)c2c(Cl)c(C)c1-c1c(-c3ccc(F)cc3)sc3ncnc(c13)O[C@@H](C(=O)O)Cc1cc(ccc1OCc1ccnc(-c3ccc(CN4CCOCC4)cc3)n1)OC[C@@H](CN1CCN(C)CC1)O2` [Example 148, (7R,16R)-19,23-dichloro-1-(4-fluorophenyl)-20,22-dimethyl-16-[(4-methylpiperazin-1-yl)methyl]-10-[(2-{4-[(morpholin-4-yl)methyl]phenyl}pyrimidin-4-yl)methoxy]-7,8,15,16-tetrahydro-18,21-etheno-13,9-(metheno)-6,14,17-trioxa-2-thia-3,5-diazacyclononadeca[1,2,3-cd]indene-7-carboxylic Acid] are 0.18 nM, 0.000736 µM, 0.346 nM and 0.034 nM.
In the case of `Cc1c(Cl)c2c(Cl)c(C)c1-c1c(-c3ccc(F)cc3)sc3ncnc(c13)O[C@@H](C(=O)O)Cc1cc(ccc1OCc1ccnc(-c3cccc(S(=O)(=O)N4CCOCC4)c3)n1)OC[C@@H](CN1CCN(C)CC1)O2` [Example 149, (7R,16R)-19,23-dichloro-1-(4-fluorophenyl)-20,22-dimethyl-16-[(4-methylpiperazin-1-yl)methyl]-10-({2-[3-(morpholine-4-sulfonyl)phenyl]pyrimidin-4-yl}methoxy)-7,8,15,16-tetrahydro-18,21-etheno-13,9-(metheno)-6,14,17-trioxa-2-thia-3,5-diazacyclononadeca[1,2,3-cd]indene-7-carboxylic Acid], the IC50 was found to be 0.363 nM in assay [1] and 0.0014 µM in assay [3]. Also, the Ki in assay [2] (setting [4]) is 0.14 nM; in assay [2] (setting [5]), 0.006 nM.
For `Cc1c(Cl)c2c(Cl)c(C)c1-c1c(-c3ccc(F)cc3)sc3ncnc(c13)O[C@@H](C(=O)O)Cc1cc(ccc1OCc1ccnc([C@@H]3CN4CCC[C@H]4CO3)n1)OC[C@@H](CN1CCN(C)CC1)O2` [Example 150, (7R,16R)-19,23-dichloro-1-(4-fluorophenyl)-10-({2-[(3S,8aS)-hexahydro-1H-pyrrolo[2,1-c][1,4]oxazin-3-yl]pyrimidin-4-yl}methoxy)-20,22-dimethyl-16-[(4-methylpiperazin-1-yl)methyl]-7,8,15,16-tetrahydro-18,21-etheno-13,9-(metheno)-6,14,17-trioxa-2-thia-3,5-diazacyclononadeca[1,2,3-cd]indene-7-carboxylic Acid], the values for the IC50 in assay [1] and in assay [3] were 1.51 nM and 0.00253 µM, respectively. The Ki in assay [2] (setting [4]) amounted to 0.267 nM; in assay [2] (setting [5]), 0.043 nM.
